Tested on: live A549 human cancer cells
Test: Confocal fluorescence microscopy (CFM) of live A549 cells stained with c(RGDyK) peptide conjugates (TMIAs)
Type: cell-based
Conditions: 5 μM conjugate, 2 hours incubation, 37° C., HeNe633 laser
Procedure: The general protocol for Confocal Microscopy by Chen, et al was followed with the following detailed procedures for cell culture and staining.
Cell Preparation: An A549 culture obtained from the American Type Culture Collection (ATCC) was grown to 50-70% confluency in an In Vitro Scientific 35 mm culture dish with 10 mm Glass bottom well. The culture was incubated in DMEM (Dulbecco's Modified Eagle Medium) with 10% Fetal Bovine Serum (FBS) overnight at 37° C. and 5% CO2. To obtain a suspension cell culture for transfer purpose, the cells were washed with Phosphate Buffered Saline (PBS) and then 0.25% Trypsin-EDTA (1×) (Invitrogen) was added to detach the cells.
Cell Staining: The cells were washed 3× with pre-heated PBS (Phosphate-buffered saline). 5 μM c(RGDyK) peptide conjugates (TMIAs) were added to the 10 mm glass bottom well and incubated at 37° C. and 5% CO2. Cells were then washed 4× with chilled PBS. The samples were viewed immediately under the scanning laser confocal microscope (Leica Microsystems Inc.). Confocal Microscopy Scanning: Leica TCS SP5 II AOBS Filter Free Tunable Spectral Confocal Research Microscope with Resonant Scanner and Hybrid Detectors attached to Leica DMI6000 Fully Automated Microscope was used, with 40× water immersion objective. The 405 Diode and HeNe633 lasers were employed for visualizing suspected auto-fluorescence, c(RGDyK) Cy5.5-TMIA respectively. […]

c(RGDyK)-SMCC-DLys(Cy5.5)-Lys(Gd-DOTA)-NH2 [Compound (44)]
CFM image: fluorescence of the TMIA in the cell: illuminated areas a result of fluorescence of the TMIA

From patent US10610608B2, “Modular imaging agents containing amino acids and peptides” (Rochester Institute of Technology, priority 2013, dated 2020)
